In patent US9650399B2, “Salicylic acid derivatives, pharmaceutically acceptable salt thereof, composition thereof and method of use thereof” (The Governing Council of the University of Toronto, priority 2012, dated 2017):
“Also recorded” adds a separate entry of the source.

Tests used:
[1] = system: patient-derived pancreatic cancer line (Panc10.05); experiment: MTS cell survival, pancreatic cancer line; assay type: cell-based; conditions: Homo sapiens, Panc1005, Panc10.05, 72 h, read-out: ED50 (IC50)
Procedure: Low passage patient-derived pancreatic cancer line (Panc10.05) was plated in 96-well plates (3×10^3 per well) and allowed to attach overnight. STAT3 inhibitors 31, 41, 42 and 38 were added at indicated concentrations. Cell survival was measured 72 h after drug addition with the MTS assay.

[2] = system: patient-derived pancreatic cancer line (Pa03C); experiment: 3D culture cytotoxicity (Alamar Blue) with and without cancer-associated fibroblasts; assay type: cell-based; conditions: presence and absence of CAFs, Alamar Blue Day 11
Procedure: FIG. 11 illustrates the effects of STAT3 inhibitor 31 on low passage patient-derived pancreatic cancer line (Pa03C) plated in a 96-well plate coated with 1% Noble Agar in media containing 3% Matrigel, with and without cancer-associated fibroblasts. The ratio of the tumor to CAFs is 1:4. Tumor spheres begin to form around Day 3, and STAT3 inhibitor 31 added at Day 4 and 8. Cytotoxicity is assessed by fluorescence using Alamar Blue assay on Day 11.

[3] = system: STAT3 phosphorylation (Y705); experiment: Western blot of IL-6 stimulated pSTAT3 in pancreatic cancer cells; assay type: cell-based; conditions: 1 hr pretreatment, IL-6 50 ng/mL 15 min, Pa03C
Procedure: Low passage patient-derived pancreatic cancer lines (Pa03C and Panc10.05) were plated in 6-well plates (2×10^5 and 8×10^4, respectively) and allowed to attach overnight. STAT3 inhibitors were added for 1 hr prior to IL-6 stimulation (50 ng/mL, 15 min). STAT3 inhibitors were present during IL-6 stimulation. Cells were harvested and lysed for Western blotting. phospho-Specific STAT3 antibody (Y705) was used to look at STAT3 phosphorylation and total STAT3 antibody was used to normalize activation of STAT3. Antibodies were from Cell Signaling and used at a 1:1000 dilution.

[4] = system: 127EF; experiment: alamarBlue cell viability, BTSC 127EF; assay type: cell-based; conditions: Homo sapiens, read-out: EC50 against 127EF
Text: . BTSC spheres were dissociated to single cells with the enzyme Accumax (Innovative Technologies), seeded at 1500 cells/96-well and treated with drug or vehicle (DMSO) one day after plating. Cytotoxicity studies were repeated independently at Sickkids Hospital using BTSC lines 25M, 67EF, 73EF, 84EF and 127EF. BTSC spheres were dissociated to single cells as above and plated in 96 well plates in triplicate at 3000 cells/96-well. In both sets of experiments drugs were used as serial dilutions within the range of 5 μM to 100 nM in the first set and 25 μM to 10 nM. Cell viability following drug treatment was assessed three days later using the ALAMARBLUE™ assay (Invitrogen) according to the manufacturer's instructions. All culture experiments were performed in triplicate with a minimum of three wells per condition. Table 4 below illustrates a screen of the library against a number of BTSCs using ALAMARBLUE™ assay.

[5] = system: ErbB2 mammary breast tumour cell lines (NIC); experiment: CyQuant proliferation assay in ErbB2 mammary tumour cell lines; assay type: cell-based
Procedure: Compounds were assessed for inhibition of cell proliferation in ErbB2 mammary breast tumour cell lines (NIC) containing the activated form of ErbB2 using a CyQuant Assay. […] Three individual Mouse Mammary Tumour Virus ErbB2 mammary tumour cell lines (NIC) were resuspended in 10% FBS plus single quots DMEM media to a final concentration of 40,000 cells per 1 mL. Cells were plated at a concentration of 4,000 cells in 100 μL of media per well on 96 well NUNC plates and incubated for 24 h hours at 37° C. plus 5% CO2. […] Each condition was repeated in quadruplicate. At predetermined time points; at treatment, 24 h, 48 h and 72 h post treatment, the media was removed from the cells and the plates were stored at −80° C. wrapped in tin foil. When needed, all the plates were thawed to room temperature. Invitrogen's CyQuant Cell Proliferation Assay kit was used to measure DNA content. Following their directions, the cell lysis buffer was diluted 1:20 with water and then the CyQuant GR solution 1:400 in the lysis buffer. […] The plates were then incubated for 2-5 minutes protected from light, then read on a fluorescence microplate reader with filters for 480 nm excitation and 520 nm emission maxima. Quadruplicates were averaged and the error bars represent the S.E.M. In some cases the absorbance was normalized to the DMSO control.

[6] = system: 101 diverse kinases; experiment: KINOMEscan kinome screen; assay type: binding; conditions: 500 nM; hit defined as >35% inhibition
Procedure: […] The test compound was evaluated at a single dose of 500 nM. Kinase-tagged T7 phage strains were grown in parallel in 24-well blocks in an E. coli host derived from the BL21 strain. E. coli were grown to the log-phase and were then infected with T7 phage from a frozen stock (multiplicity of infection=0.4) and incubated at 32° C. with shaking until lysis (90-150 minutes). Lysates were centrifuged (6,000×g) and filtered (0.2 μm) to remove any cell debris. The remaining kinases were produced in HEK-293 cells and were then tagged with DNA for easy quantitative PCR (qPCR) detection. […] The liganded beads were blocked with excess biotin and washed with blocking buffer (SeaBlock (Pierce), 1% BSA, 0.05 Tween 20, 1 mM DTT) in order to remove unbound ligand and to also reduce non-specific phage binding. […] All reactions were performed in polypropylene 384-well plates in a final volume of 40 μL. […] Kinase concentration in eluates was measured by qPCR (FIG. 6).

With `CN(CC(=O)N(Cc1ccc(C2CCCCC2)cc1)c1ccc(C(=O)O)cc1)S(=O)(=O)c1c(F)c(F)c(F)c(F)c1F` [Compound 31, 4-(N-(4-cyclohexylbenzyl)-2-(2,3,4,5,6-pentafluoro-N-methylphenylsulfonamido)acetamido)benzoic acid] the IC50 [1] was 6.2 µM, the “killing of tumor cells grown in 3D cultures” value [2] was “effectively kills tumor cells” and the “de novo phosphorylation of STAT3” value [3] was “potently inhibits de novo phosphorylation of STAT3 protein”. The EC50 [4] was 0.066 ± 0.0339 µM, the “cell proliferation in 2071 NIC cells” value ([5]; 5 μM, CyQuant) was “completely inhibiting cell proliferation” and the “potency in comparison with BP1-102” value ([5]; NIC cell lines 2071, 8518 and 9822) was “more potent”. For the same compound, the “off-target kinase activity, kinome screen” value [6] was “negligible effects; also recorded: does not inhibit any of the 101 kinases”.
